Tested on: C57BL/6 mice
Test: Hair regrowth test on shaved backs of C57BL/6 mice
Format: in vivo
Settings: 100 μl (0.1% w/v) applied over hair removed area once a day for 30 days; female C57BL/6 mice
From the text: C57BL/6 mice (female), 42˜49 days old, were used in this test.
First of all, mice were removed of hair on their backs using an electric shaver, and weighed. The mice were divided into several groups with weights equally distributed. […] The degree of hair growth was observed by naked eye and the back sides of the mice were photographed.

Substance | degree of hair growth observed by naked eye (hair regrowth effect)
Cyclosporin A 4,7-bis(thioamide) | no significant effect
Cyclosporin A 4-thioamide | no significant effect

Reference: patent US20040063626A1 (priority 2000, published 2004)
